Test results from a melting point compilation (Tetko et al.; mined from patent text by program, amines drawn as free bases though some values may be those of a salt).

SMILES	melting point
CCCCCCCCS(=O)(=O)NCCCCOc1ccc(-n2ccnc2)cc1	99 to 100 °C
CC(=O)c1ccc(OCCCBr)c(Br)c1	83 to 84 °C
Cc1cccc(-c2nc3ccc(Cl)nn3c2-c2ccnc(N)c2)c1	247 to 248 °C
COc1cc2c(cc1Nc1ncc(Cl)c(Nc3ccccc3S(=O)(=O)N3CCCC3)n1)NC(=O)CN(CC1CC1)C2	142 °C
CCOC(=O)c1ccc2cc(-c3ccc(OC)cc3)ccn2c1=O	205 to 209 °C
ClC1=NC(Cl)(C(Cl)(Cl)Cl)N=C1Cl	66 to 68 °C
O=c1c2c(CCCCCCc3ccccc3)n[nH]c2c2cccnc2n1-c1ccccc1	150 to 151 °C
O=C1NC(=O)C(C2CCCC2)C(=O)N1	222 to 223 °C
S=C1CC(c2ccc(Cl)cc2)Oc2ccccc21 (centres undefined)	116 to 120 °C
CCNc1cc(-c2c[nH]cn2)ccn1	135 to 137 °C
COc1cc2c(cc1OC)C1=NCC(CBr)N1C(SC)=N2 (centres undefined)	225 °C
c1cc(-c2cc3nccnc3[nH]2)cc(C2OCCCO2)c1	205 to 206 °C
COc1ccc(CN(C(=O)C2CCCc3ccc(OC)cc32)c2ccc(C(C)C)cc2)cc1 (centres undefined)	83 to 85 °C
Cc1oc(-c2ccccc2)nc1CCOc1ccc(CCC(N)=O)cc1	139 to 140 °C
Cc1nnsc1C(=O)Nc1ccc(-n2nc(C3CC3)cc2C2CC2)c(F)c1	148 to 152 °C
CCCOc1c(C=NO)c(=O)n(C)c(=O)n1C	119 to 120 °C
CCCCn1c(=O)[nH]c2nc3ccccc3n2c1=O	275 to 280 °C
Cn1cncc1C(O)(c1ccc(F)cc1)c1ccc2c(c1)C(c1cccc(Cl)c1)n1nnnc1N2 (centres undefined)	180 °C
CN(C)c1ccc(NC(=O)N(C)c2cccc(-c3ccc(CC4SC(=O)NC4=O)cc3)c2)cc1 (centres undefined)	102 °C

SMILES	melting point
CN(C)Cc1nc(C(=O)O)nn1-c1ccc(Cl)cc1C(=O)c1ccccc1Cl	110 to 113 °C
COC(=O)c1ncc(C)cc1C(=O)O	200 °C
CC#CCOc1cc(-n2nnn(CCC)c2=O)c(Cl)cc1Cl	58 to 60 °C
COc1ccc2c(c1)C(C)CCC2=O (centres undefined)	57.5 to 58.5 °C
CCC(=O)Nc1ccccc1-c1nc2ccccc2[nH]1	> 200 °C
O=C(Cc1ccccc1)NC1C(=O)N2CC(C(=O)OCc3ccc([N+](=O)[O-])cc3)SC12 (centres undefined)	181 to 183 °C
Brc1ccc2c(c1)-c1nc(-c3ccccc3)sc1CC2	85 °C
O=C1c2cccc3cc4ccccc4c(c23)C(=O)N1CCNCCCNCCN1C(=O)c2cccc3cc4ccccc4c(c23)C1=O	191 °C
COc1ccc(CN(C)CCCCCc2ccc(NC(=O)c3cccc4c(=O)c5cccc(F)c5[nH]c34)cc2)cc1OC	130 °C
CC(=O)NCc1coc2cc(NS(C)(=O)=O)c(Oc3ccccc3)cc2c1=O	240 to 242 °C
O=C(CBr)NCCSC(c1ccccc1)(c1ccccc1)c1ccccc1	130 to 135 °C
O=C(NCc1ccc(Cl)cc1)c1cn(CCCc2ccccc2)c2sc(CN3CCOCC3)cc2c1=O	169 to 171 °C
CC(=O)Nc1cc(C)c(C)nc1C	89 to 92 °C
COc1cc(Nc2c(C#N)cnc3cc4cc(OC)c(OCCN5CCOCC5)cc4cc23)c(Cl)cc1F	204 to 214 °C
Cc1c(C(=O)Nc2ccc(N3CCN(C4CCSCC4)CC3)c(C#N)c2)cnn1-c1ccc(Cl)cc1	281 °C
CC(C)(C)c1nc2cc(N3CCCCC3)c(NC(N)=S)cc2s1	228 to 232 °C
OC1(c2cnccn2)CN2CCC1C2 (centres undefined)	180 to 183 °C
COC1OCC[C@@H]1NC(=O)[C@H](Cc1ccccc1)NC(=O)OCc1ccccc1 (some centres undefined)	140 to 142 °C
CCOc1nn(Cc2ccc(Cl)cc2Cl)cc1CCCOc1nn(-c2ccccc2)cc1CCC(=O)O	114 to 118 °C

SMILES	melting point
CC(=O)SCC(Cc1ccccc1)C(=O)Nc1ccc(C(=O)O)c(Cl)c1 (centres undefined)	145 to 148 °C
O=C(CC(F)=C(F)F)Nc1ccc(S(=O)(=O)O)cc1	> 300 °C
Cc1sc(-c2ccccc2F)nc1O	159 to 160 °C
CCn1nc(-c2ccc(Cl)cc2[N+](=O)[O-])c2c1CCCC2=O	184 °C
CN1C(=O)[C@H](NC(=O)/C=C/c2ccccc2Cl)N=C(c2ccccc2)c2ccccc21	128 to 131 °C
CCOc1ccc2c(c1)n(C1CCCCC1)c(=O)n2S(=O)(=O)c1ccc(C(=O)NC(C)(C)CC)cc1OC	219 °C
CC(=O)NC[C@H]1CN(c2ccc(C(=O)c3cnc4ccccn34)c(F)c2)C(=O)O1	196 to 198 °C
COC(=O)c1ccc(O)cn1	188 to 190 °C
CN1CCc2cc(O)c(O)c(Sc3ccc(F)cc3)c2CC1	105 to 114 °C
CCOC(=O)NC(=S)Nc1nnc(-c2cc(C(C)(C)C)c(O)c(C(C)(C)C)c2)s1	> 250 °C
Cc1nc(-n2ccc(O)cc2=O)sc1C(=O)NCC1CC1	240 to 242 °C
CCOc1ccc2c(c1)n(C13CC4CC(CC(C4)C1)C3)c(=O)n2S(=O)(=O)c1ccc(NC(=O)N(CC)CC)cc1OC	221 °C
CC(=O)N[C@@H](Cc1c[nH]c2ccc(O)cc12)C(=O)O	209 °C
COCc1cccc(C=CC(O)c2ccccc2)c1NC(=O)CC1c2ccccc2Oc2ccccc21 (centres undefined)	204 to 206 °C
CC(C)(C)c1cc(C(C)(C)C)c2c(c1)C1(O)C(=O)c3ccccc3C1(O)O2 (centres undefined)	200 to 203 °C
COc1ccc(CN2C(=O)C3(COc4cc(OC)c(C#N)cc43)c3ccccc32)cc1 (centres undefined)	207 to 208 °C
COc1ccc(C(=O)c2c(CO[N+](=O)[O-])[nH]c(=O)n2C(C)=O)cc1	165 to 166 °C
CCc1c(C(=O)N2CCN(CCCCc3c[nH]c4ccc(F)cc34)CC2)nc(-c2ccccc2Cl)n1-c1ccc(Cl)cc1	91 to 92 °C

The remaining lines, values ahead:

melting point	SMILES
160 to 162 °C	CC(=O)N1C(=O)N(N=Cc2cccnc2)Cc2cc(C(F)(C(F)(F)F)C(F)(F)F)ccc21
182 °C	CCOc1ccccc1C(=O)Nc1ccc2oc(Nc3ccc(CC)cc3)nc2c1
229 °C	CCOC(=O)C1=C(C)Nc2nc(N3CCOCC3)nc(N3CCOCC3)c2C1c1cccnc1 (centres undefined)
> 350 °C	Nc1nc2nc(-c3ccccc3)[nH]c2c2ncnn12
155 to 156 °C	CN1CCC(=O)C(C2c3ccccc3Sc3ccccc32)C1 (centres undefined)
56 to 70 °C	CCCN(CCCN1CCc2cc(OC)c(OC)cc2CC1=O)CCc1ccc(OC)c(OC)c1
193 to 195 °C	CC(C)N1CCN(Cc2ccc(-c3ccc4c(Nc5ccc(Sc6nccn6C)c(Cl)c5)c(C#N)cnc4c3)cc2)CC1
281 to 285 °C	O=c1nc(-c2ccccc2F)c2ccccc2[nH]1
74 to 75 °C	CCCc1c(O)c(C(C)=O)c(C)c2c1OC(C)(C)CC2C (centres undefined)
83 to 86 °C	O=C1NC(=O)C(C2CC=CCC2)O1 (centres undefined)
170 to 172 °C	CCCc1nc2c(N)nc3ccccc3c2n1CC(=O)OCC
87 to 88 °C	CCOC(=O)c1ccc(NC(=O)OC(C)(C)C)nn1
204 to 207 °C	COC(=O)COc1ccc(C(=O)NC(=O)Nc2ccc(C#N)cc2)cc1
139 to 143 °C	NC(=O)CC1CCC(OCc2ccccc2)c2sccc21 (centres undefined)
101 °C	CC(=O)CC(=O)Nc1cccc(OC(C)=O)c1
224 to 226 °C	Nc1nc(-c2cc(Cl)ccc2Cl)nc(N2CC(CO)C2)n1
64 to 65 °C	CS(=O)(=O)OCCC1(c2ccccc2)C=CCC=C1
94 to 95 °C	CCCCCCCCCCCCCCCCCCCCCCC(COC(C)=O)(COC(C)=O)NC(C)=O
74 °C	Cn1ccc2ccc(O)cc21
196 to 198 °C	O=c1sc2ccccc2n1Cc1nc2ccccc2n1-c1ccccc1
161 to 162 °C	CC(C)C(=O)c1cn(Cc2c(F)cccc2F)c2sc(-c3ccc(NC(=O)C(C)CO)cc3)c(CN(C)Cc3ccccc3)c2c1=O (centres undefined)
120 to 123 °C	O=C(CN1CC(c2ccc(F)cc2)CC1=O)ON1C(=O)CCC1=O (centres undefined)

melting point	SMILES
306 to 308 °C	Cc1nc2c(N)nc3ccccc3c2n1CC1(O)CCCC1
139 to 140 °C	CC(=O)N1CCNC(=O)C1c1ccc(F)cc1 (centres undefined)
99 to 100 °C	COc1cccc(Sc2cccc(F)c2C#N)c1
104 to 105 °C	Nc1ccc(Br)cc1C(O)c1ccccn1 (centres undefined)
134 to 136 °C	CCOC(=O)[C@@](C)(C#N)[C@@H](c1ccccc1OC)c1cccc2ccccc12
193 to 195 °C	Cc1cc(S(=O)(=O)N2c3ccc(Br)cc3-c3ccccc3C2C)ccc1O (centres undefined)
88 to 90 °C	OCc1ccc(OCc2ccccc2)cc1O
132 to 134 °C	CCCc1c(OC(=S)N(C)C)ccc2c(=O)cc(C(=O)OCC)oc12
202 to 205 °C	COc1ccc(-c2ccc3c(N4CCOC[C@@H]4C)nc(N4CCOC[C@@H]4C)nc3n2)cc1CO
264 to 265 °C	COc1cc(OCCNC(C)=O)cc(-c2nc3cc(OC)cc(OC)c3c(=O)[nH]2)c1
184 °C	O=C(Nc1ccccc1S(=O)(=O)c1ccccc1)N[C@@H](Cc1ccc(Nc2nccc3ccncc23)cc1)C(=O)O
102 °C	CCOC(C)=NNc1ccc([N+](=O)[O-])cc1
224 to 225 °C	COc1ncccc1-c1cc2cc(C(=O)NCCCN3CCOCC3)ccc2[nH]1
61 to 62 °C	O[C@H](CCc1cccnc1)COc1ccc(-c2cccc(F)c2)cc1
169 to 171 °C	C=C(COC1CC2C3CCC4=CC(=O)CCC4(C)C3(F)C(O)CC2(C)C1(O)C(=O)CO)c1ccccc1 (centres undefined)
139 to 142 °C	O=C(O)C1=NOC2(CCC(C3CCCCC3)CC2)C1 (centres undefined)
198 to 199 °C	CC1CCC(Nc2ccccc2)c2ncc(C(=O)O)c(=O)n21 (centres undefined)
155 to 158 °C	CCOCc1nc2c(N)nc3ccccc3c2n1CCCCS(N)(=O)=O
193 to 195 °C	Cc1cnc(N2N=C(c3ccc([N+](=O)[O-])cc3)c3cc4c(cc3CC2C)OCO4)s1 (centres undefined)
182 to 184 °C	CN(C)c1ccc(/C=C/c2nc3cc(Cl)ccc3s2)cc1
97 to 102 °C	C1=C2CCC=C2CCCCCCCCC1
